In patent publication US8785488B2 (Exelixis Patent Company LLC, priority 2009, dated 2014):

Each molecule was assayed against T1, human TGR5 (h-TGR5) (Homo sapiens, UniProt Q8TDU6) (assay: TGR5/CRE-Luciferiase Assay (HEK 293 hTGR5/CRE-Luc cells)). Conditions: h-TGR5 CRE-Luc EC50, Table 1; read-out: CRE-Luc (EC50).
T1 construct: expressed in transfected cells
T1 sequence (Q8TDU6 1-330): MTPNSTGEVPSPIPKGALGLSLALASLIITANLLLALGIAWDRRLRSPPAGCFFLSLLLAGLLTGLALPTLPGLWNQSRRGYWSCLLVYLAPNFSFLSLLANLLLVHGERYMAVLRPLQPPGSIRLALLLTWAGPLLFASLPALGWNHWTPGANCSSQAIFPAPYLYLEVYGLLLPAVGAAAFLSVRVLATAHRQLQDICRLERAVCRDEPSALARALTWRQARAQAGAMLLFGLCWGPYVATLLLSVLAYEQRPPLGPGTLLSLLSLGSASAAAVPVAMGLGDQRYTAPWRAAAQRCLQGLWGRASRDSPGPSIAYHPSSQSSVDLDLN
Format: cell-based
Procedure: Compounds were serially diluted in DMEM containing 5% DMSO and 5 μL of compound or media alone was transferred to each well and plates were incubated for 6 hours. Following incubation, 30 μL of lysis/luciferase buffer was added to each well. The luciferase activity was then measured on the EnVision™ plate reader and the dose response data was analyzed using ActivityBase.
In the following tables, EC50 values determined according to the TGR5 cAMP Assay described herein (cAMP); EC50 values determined according to the TGR5/CRE-Luciferiase Assay described herein (CRE-Luc). […] The following compounds in Tables 1 and 2 were made by using procedures described in the above Schemes and Examples, and, where applicable, by making any necessary substitutions of known materials that one skilled in the art would ordinarily understand how to do.
Molecule `COc1c(Cl)cc(C(C)(C)c2cnc(SCc3ccc(F)cc3Cl)n2-c2ccc(F)cc2)cc1Cl` has an EC50 of under 100 nM.
Molecule `CC(C)(C)OC(=O)N1CCC(NCc2ncc(C(C)(C)c3ccc(Cl)c(Cl)c3)n2-c2ccc(F)cc2)CC1` has an EC50 of 1000 to 10000 nM.
In the case of “2-chloro-5-{1-[2-{(2-chloro-4- fluorophenyl)methyl]thio}-1-(4-fluorophenyl)- 1H-imidazol-5-yl]-1- methylethyl}benzenesulfonamide”, the EC50 is reported as 100 to 1000 nM.
Work on `CC(C)(C)OC(=O)N1CCC(CSc2ncc(C(C)(C)c3ccc(Cl)c(Cl)c3)n2-c2ccc(F)cc2)C1` (centres unmarked) [1,1-dimethylethyl 3-[({5-[1-(3,4-dichlorophenyl)-1-methylethyl]-1-(4-fluorophenyl)-1H-imidazol-2-yl}thio)methyl]pyrrolidine-1-carboxylate] yielded an EC50 of 100 to 1000 nM.
Molecule `CC(C)(C)OC(=O)N1CCC(OCc2ncc(C(C)(C)c3ccc(Cl)c(Cl)c3)n2-c2ccc(F)cc2)CC1` [1,1-dimethylethyl 4-[({5-[1-(3,4-dichlorophenyl)-1-methylethyl]-1-(4-fluorophenyl)-1H-imidazol-2-yl}methyl)oxy]piperidine-1-carboxylate] has an EC50 of 1000 to 10000 nM.
Molecule `CC(C)(C)OC(=O)N1CCC(CSc2ncc(C(C)(C)c3ccc(F)c(F)c3)n2-c2ccc(F)cc2)CC1` [1,1-dimethylethyl 4-[({5-[1-(3,4-difluorophenyl)-1-methylethyl]-1-(4-fluorophenyl)-1H-imidazol-2-yl}thio)methyl]piperidine-1-carboxylate] has an EC50 of 100 to 1000 nM.
`CC(C)(c1ccc(Cl)c(Cl)c1)c1cnc(S(=O)(=O)Cc2c(F)cccc2Cl)n1-c1ccc(F)cc1Cl` [1-(2-chloro-4-fluorophenyl)-2-{[(2-chloro-6-fluorophenyl)methyl]sulfonyl}-5-[1-(3,4-dichlorophenyl)-1-methylethyl]-1H-imidazole] was tested, and the EC50 was 1000 to 10000 nM.
With `CC(C)(c1ccc(Cl)c(Cl)c1)c1cnc(SCc2c(F)cccc2Cl)n1-c1ccc(F)cc1Cl` [1-(2-chloro-4-fluorophenyl)-2-{[(2-chloro-6-fluorophenyl)methyl]thio}-5-[1-(3,4-dichlorophenyl)-1-methylethyl]-1H-imidazole] the EC50 was 100 to 1000 nM.
For `CC(C)(c1ccc(Cl)c(Cl)c1)c1cnc(SCc2c(F)cccc2Cl)n1-c1ccc(F)c(Cl)c1` [1-(3-chloro-4-fluorophenyl)-2-{[(2-chloro-6-fluorophenyl)methyl]thio}-5-[1-(3,4-dichlorophenyl)-1-methylethyl]-1H-imidazole], the EC50 was under 100 nM.
For `CC(C)(c1ccc(Cl)c(Cl)c1)c1cnc(SCc2c(F)cccc2Cl)n1-c1ccc(Cl)cc1F` [1-(4-chloro-2-fluorophenyl)-2-{[(2-chloro-6-fluorophenyl)methyl]thio}-5-[1-(3,4-dichlorophenyl)-1-methylethyl]-1H-imidazole], the EC50 was 100 to 1000 nM.
`CC(C)(c1ccc(Cl)c(Cl)c1)c1cnc(SCc2c(F)cccc2Cl)n1-c1ccc(Cl)c(F)c1` [1-(4-chloro-3-fluorophenyl)-2-{[(2-chloro-6-fluorophenyl)methyl]thio}-5-[1-(3,4-dichlorophenyl)-1-methylethyl]-1H-imidazole] gave an EC50 of 100 to 1000 nM.
With `CC(C)(O)COc1cc(F)ccc1CSc1ncc(C(C)(C)c2ccc(Cl)c(Cl)c2)n1-c1ccc(F)cc1` [1-({2-[({5-[1-(3,4-dichlorophenyl)-1-methylethyl]-1-(4-fluorophenyl)-1H-imidazol-2-yl}thio)methyl]-5-fluorophenyl}oxy)-2-methylpropan-2-ol] the EC50 was 100 to 1000 nM.
Molecule `CC1CCc2cc(F)ccc2N1S(=O)(=O)c1ncc(C(C)(C)c2ccc(Cl)c(Cl)c2)n1-c1ccc(F)cc1` (centres unmarked) [1-({5-[1-(3,4-dichlorophenyl)-1-methylethyl]-1-(4-fluorophenyl)-1H-imidazol-2-yl}sulfonyl)-6-fluoro-2-methyl-1,2,3,4-tetrahydroquinoline] has an EC50 of 1000 to 10000 nM.
`CC(C)(O)COc1cc(CSc2ncc(C(C)(C)c3ccc(Cl)c(Cl)c3)n2-c2ccc(F)cc2)ccc1F` [1-({5-[({5-[1-(3,4-dichlorophenyl)-1-methylethyl]-1-(4-fluorophenyl)-1H-imidazol-2-yl}thio)methyl]-2-fluorophenyl}oxy)-2-methylpropan-2-ol] was tested, and the EC50 was 100 to 1000 nM.
Work on `COc1ccc(C(C)(C)c2cnc(CNCc3c(F)cccc3Cl)n2-c2ccc(F)cc2)cc1OC` [1-[5-{1-[3,4-bis(methyloxy)phenyl]-1-methylethyl}-1-(4-fluorophenyl)-1H-imidazol-2-yl]-N-[(2-chloro-6-fluorophenyl)methyl]methanamine] yielded an EC50 of under 100 nM.
`COc1ccc(C(C)(C)c2cnc(CNCc3ccc(Cl)c(F)c3)n2-c2ccc(F)cc2)cc1OC` [1-[5-{1-[3,4-bis(methyloxy)phenyl]-1-methylethyl}-1-(4-fluorophenyl)-1H-imidazol-2-yl]-N-[(4-chloro-3-fluorophenyl)methyl]methanamine] gave an EC50 of under 100 nM.
Work on `CC(C)(O)COc1ccc(C(C)(C)c2cnc(SCc3ccc(F)cc3Cl)n2-c2ccc(F)cc2)cc1Cl` [1-[(2-chloro-4-{1-[2-{[(2-chloro-4-fluorophenyl)methyl]thio}-1-(4-fluorophenyl)-1H-imidazol-5-yl]-1-methylethyl}phenyl)oxy]-2-methylpropan-2-ol] yielded an EC50 of 100 to 1000 nM.
In the case of `CC(C)(O)COc1cc(C(C)(C)c2cnc(SCc3c(F)cccc3Cl)n2-c2ccc(F)cc2)ccc1Cl` [1-[(2-chloro-5-{1-[2-{[(2-chloro-6-fluorophenyl)methyl]thio}-1-(4-fluorophenyl)-1H-imidazol-5-yl]-1-methylethyl}phenyl)oxy]-2-methylpropan-2-ol], the EC50 is reported as 100 to 1000 nM.
With `CN1CCN(c2ccc(CSc3ncc(C(C)(C)c4ccc(Cl)c(Cl)c4)n3-c3ccc(F)cc3)cc2Cl)CC1` [1-{2-chloro-4-[({5-[1-(3,4-dichlorophenyl)-1-methylethyl]-1-(4-fluorophenyl)-1H-imidazol-2-yl}thio)methyl]phenyl}-4-methylpiperazine] the EC50 was 1000 to 10000 nM.
`CC(=O)c1ccc(OCc2ncc(C(C)(C)c3ccc(Cl)c(Cl)c3)n2-c2ccc(F)cc2)c(Cl)c1` [1-{3-chloro-4-[({5-[1-(3,4-dichlorophenyl)-1-methylethyl]-1-(4-fluorophenyl)-1H-imidazol-2-yl}methyl)oxy]phenyl}ethanone] gave an EC50 of 1000 to 10000 nM.
`CN1CCN(c2ccc(CSc3ncc(C(C)(C)c4ccc(Cl)c(Cl)c4)n3-c3ccc(F)cc3)cc2F)CC1` [1-{4-[({5-[1-(3,4-dichlorophenyl)-1-methylethyl]-1-(4-fluorophenyl)-1H-imidazol-2-yl}thio)methyl]-2-fluorophenyl}-4-methylpiperazine] was tested, and the EC50 was 100 to 1000 nM.
Work on `CN1CCN(c2cc(CSc3ncc(C(C)(C)c4ccc(Cl)c(Cl)c4)n3-c3ccc(F)cc3)ccc2F)CC1` [1-{5-[({5-[1-(3,4-dichlorophenyl)-1-methylethyl]-1-(4-fluorophenyl)-1H-imidazol-2-yl}thio)methyl]-2-fluorophenyl}-4-methylpiperazine] yielded an EC50 of 1000 to 10000 nM.
`CC(C)(c1ccc(Cl)c(Cl)c1)c1cnc(SCc2ccc(F)c(NC(=N)N)c2)n1-c1ccc(F)cc1` [1-{5-[({5-[1-(3,4-dichlorophenyl)-1-methylethyl]-1-(4-fluorophenyl)-1H-imidazol-2-yl}thio)methyl]-2-fluorophenyl}guanidine] showed an EC50 of 100 to 1000 nM.
With `CC(C)(O)c1ccc(C(C)(C)c2cnc(SCc3ccc(F)cc3Cl)n2-c2ccc(F)cc2)cc1Cl` [2-(2-chloro-4-{1-[2-{[(2-chloro-4-fluorophenyl)methyl]thio}-1-(4-fluorophenyl)-1H-imidazol-5-yl]-1-methylethyl}phenyl)propan-2-ol] the EC50 was 100 to 1000 nM.
In the case of `CN(C)CCn1c(C(C)(C)c2ccc(Cl)c(Cl)c2)cnc1SCc1c(F)cccc1Cl` [2-(2-{[(2-chloro-6-fluorophenyl)methyl]thio}-5-[1-(3,4-dichlorophenyl)-1-methylethyl]-1H-imidazol-1-yl)-N,N-dimethylethanamine], the EC50 is reported as 1000 to 10000 nM.
Molecule `CC(C)(c1ccc(Cl)c(Cl)c1)c1cnc(SCc2c(F)cccc2Cl)n1CCO` [2-(2-{[(2-chloro-6-fluorophenyl)methyl]thio}-5-[1-(3,4-dichlorophenyl)-1-methylethyl]-1H-imidazol-1-yl)ethanol] has an EC50 of 100 to 1000 nM.
`CC(C)(Oc1cc(F)ccc1CSc1ncc(C(C)(C)c2ccc(Cl)c(Cl)c2)n1-c1ccc(F)cc1)C(=O)O` [2-({2-[({5-[1-(3,4-dichlorophenyl)-1-methylethyl]-1-(4-fluorophenyl)-1H-imidazol-2-yl}thio)methyl]-5-fluorophenyl}oxy)-2-methylpropanoic acid] gave an EC50 of 1000 to 10000 nM.
Molecule `CCN(CC)CCOc1ccc(CSc2ncc(C(C)(C)c3ccc(Cl)c(Cl)c3)n2-c2ccc(F)cc2)cc1-c1nnn[nH]1` [2-({4-[({5-[1-(3,4-dichlorophenyl)-1-methylethyl]-1-(4-fluorophenyl)-1H-imidazol-2-yl}thio)methyl]-2-(1H-tetrazol-5-yl)phenyl}oxy)-N,N-diethylethanamine] has an EC50 of 100 to 1000 nM.
For `CC(C)(Oc1cc(CSc2ncc(C(C)(C)c3ccc(Cl)c(Cl)c3)n2-c2ccc(F)cc2)ccc1F)C(=O)O` [2-({5-[({5-[1-(3,4-dichlorophenyl)-1-methylethyl]-1-(4-fluorophenyl)-1H-imidazol-2-yl}thio)methyl]-2-fluorophenyl}oxy)-2-methylpropanoic acid], the EC50 was 100 to 1000 nM.
